In data set [1] the target is T1, MT1-MMP (Homo sapiens, UniProt P50281). As to the kind of experiment: Caseinolytic activity of recombinant MT1-MMP, casein zymography. The format is biochemical. Here is the method: In FIG. 3A, the proteolytic activity of MT1-MMP and its inhibition by a tetracycline compound was assessed using casein zymography: […]
In data set [2] the target is T1, MT1-MMP. As to the kind of experiment: Direct digestion of [3H-methyl]-gelatin by membrane fraction of MT1-MMP-transfected COS-1 cells. In kind it is biochemical. The settings on record: 18 hr at 37° C. As for the experimental part: Confluent MT1-MMP-transfected COS-1 cells (2×10^7 cells) were harvested following treatment with trypsin-EDTA and washed thoroughly. Cells were suspended in 25 mM sucrose, 5 mM MgCl2 in Tris base, pH 7.4, and then subjected to nitrogen (N2) cavitation at 1000 p.s.i. for 30 min at 4° C. Whole cells and nuclei were removed by centrifugation at 770×g for 10 min, and the postnuclear supernatant was centrifuged at 6,000×g for 15 min to remove heavy organelles. The supernatant was centrifuged at 100,000×g for 60 min, and the cell membrane fraction, comprising plasma membranes, Golgi, and ribosomes, was recovered in the pellet. The 100,000×g supernatant was designated as cytosol.
Radiolabeled (^3H) collagen type I was denatured, to unravel the triple helix to produce [^3H-methyl]-gelatin. When separated by SDS-PAGE, and examined by autoradiography, the denatured collagen yields three bands: α(˜100 kDa), β(˜200 kDa), and γ(˜300 kDa), corresponding to the various components of the collagen in the sample. The tritiated gelatin substrate was incubated with a membrane fraction obtained by MT1-MMP-transfected COS-1 cells as described above. The gelatinolytic activity was calculated as % lysis of the α, β, and γ intact gelatin components assessed by laser densitometer scanning of the fluorogram.

For data set [3], the target named is T1, MT1-MMP. As to the kind of experiment: Activation of pro-gelatinase A by MT1-MMP membrane fraction, gelatin zymography. The format is biochemical. The conditions noted are these: 10, 20, and 50 μM; 18 h at 37° C. As for the experimental part: Recombinant pro-gelatinase A (72 kDa type IV gelatinase) can be activated to from 62 kDa active gelatinase by MT-MMP-containing plasma membrane fractions. To examine the ability of a tetracycline compound to inhibit this gelatinase activating property of MT-MMP, membrane fractions obtained according to Example 1B were incubated with recombinant human pro-gelatinase A for 18 h at 37° C. with or without CMT-3, and examined by zymography to evaluate enzyme activation.
Specifically, pro-MMP-2 was obtained from the culture-conditioned medium from MMP-2-transfected COS-1 cells.
Conditioned media were collected from the cultures that had been treated with CMT-3 for 2 days. Media were then incubated with SDS-gel electrophoresis sample buffer for 30 min at room temperature, and then analyzed by gel electrophoresis on SDS-polyacrylamide gel (10%) containing gelatin (1 mg/mL; Novex, Inc.). Following electrophoresis, the gels were washed twice with 0.25% TRITON® X-100 for 30 min each (to renature the gelatinase), and incubated for 18-24 hr at 37° C. in a Tris-HCl buffer, pH 7.4 (see, e.g., Lokeshwar 1993). After incubation, the gels were briefly rinsed in distilled water and stained with 0.25% Coomassie brilliant blue R250. The location of gelatinase activity in the gels is visible as a colorless area on an otherwise uniform blue background, indicative of digested gelatin.

In data set [4] the target is T1, MT1-MMP. In words: Conversion of pro-gelatinase A to active gelatinase A by recombinant MT1-MMP, SDS-PAGE. The format is biochemical. As for the experimental part:
The proteolytic activity of MT1-MMP was assessed using gelatinase A zymography. Pure recombinant pro-MMP-2 (72 kDa gelatinase or pro-gelatinase A) and MT1-MMP were co-incubated in the presence or absence of CMT-3 (0.5-3.0 μM). After incubation, the enzyme mixture was examined by SDS-PAGE and the protein (enzyme) bands were stained with Coomassie brilliant blue.

Data set [5] concerns MG-63 osteosarcoma cells. As to the kind of experiment: MMP-2 expression and MT1-MMP-dependent activation of pro-MMP-2, concanavalin A-treated MG-63 cells, zymography. In kind it is cell-based, human. Here is the method: MG-63 cells, an osteosarcoma cell line, were grown in culture and treated with 40 μg/mL concanavalin A to induce MT1-MMP-dependent activation of pro-MMP-2. Culture-conditioned medium was collected, as a source of pro-MMP-2, and was incubated in the presence of the membrane fraction of COS-1 cells transfected to express MT1-MMP.

For data set [6], the system named is HT-1080 fibrosarcoma cells. In words: Matrigel invasion of HT-1080 fibrosarcoma cells. The format is cell-based, human. The settings on record: for concentration of maximal inhibition of invasion: 24 hr, 10% serum. Here is the method:
HT-1080 cells were allowed to invade through Matrigel (Collaborative Research, Bedford, Mass.) for 24 hr in medium containing 10% serum. CMT-3 or CMT-8 were added to the medium to assess their ability to inhibit invasivity of the cells. CMT-3 was tested at final concentrations of 1 μM or 10 μM; CMT-8 was tested twice at a final concentration of 50 μM. The invading cells were counted, and the relative numbers of cells were expressed as means of triplicate measurements.

Data set [7] relates to HT-1080 fibrosarcoma cells. As to the kind of experiment: Transwell migration of HT-1080 fibrosarcoma cells. The settings on record: 18 hr, 10% serum; for inhibition of HT-1080 fibrosarcoma cell migration: 0.5 μM. The format is cell-based, human. The source says:
HT-1080 cells were allowed to migrate in the presence of medium containing 10% serum for 18 hr in Transwell chambers (Costar, Cambridge, Mass.). […] The data are expressed as means of triplicate measurements.

In data set [8] the test system is studied cell lines. As to the kind of experiment: Cytotoxicity to the cells under the conditions used. The format is cell-based. The settings on record: data not shown.
Data set [9] relates to cell surface integrins. As to the kind of experiment: Blocking of cell surface integrins. In kind it is cell-based. The settings on record: data not shown.
The subject of data set [10] is studied cell lines. In words: Initial attachment and spreading of cells on extracellular matrix or Matrigel substrate. The settings on record: data not shown. In kind it is cell-based.
A short description of data set [11]: Serum half-life. The settings on record: in vivo.
Data set [12] relates to normal cells. As to the kind of experiment: Cytotoxicity in normal cells. The format is cell-based.
Data set [13] concerns prostate and melanoma tumor. The conditions noted are these: in vivo; Lokeshwar et al. 1998; Seftor et al. 1998; cited from earlier work.
Data set [14] in a line: Solubility in aqueous systems. In kind it is physicochemical.
For data set [15] the following is noted: rat, in vivo, po.

Consider 5 molecules from patent publication US20020045603A1, “Method of inhibiting membrane-type matrix metalloproteinase” (The Research Foundation of State University of New York, priority 1998, published 2002).

“Also recorded” adds a separate entry of the source.

As usually defined, the IC50 is the point on the concentration scale where inhibition reaches its midpoint.

Consider `O=C(O)CN(CCN(CC(=O)O)CC(=O)O)CC(=O)O` [EDTA, reference compound], for which the “inhibition of caseinolytic activity” value in [1] (2 mM) was “did inhibit”.

On to `NC(=O)C1=C(O)C[C@@H]2C[C@@H]3Cc4cccc(O)c4C(=O)C3=C(O)[C@]2(O)C1=O` [CMT-3, 6-demethyl-6-deoxy-4-de(dimethylamino)tetracycline], for which the “inhibition of gelatinolytic activity” value in data set [2] (5 μM) was 16.3%. Also, the “inhibition of gelatinolytic activity” value in [2] (10 μM) is reported as 35%. The “inhibition of gelatinolytic activity” value in data set [2] (20 μM) was found to be 32%. In [3], the “inhibition of MT1-MMP-induced activation of pro-gelatinase A” value is “inhibited”. In addition, the IC50 in [1] was 1 to 3 µM. In addition, the “inhibition of caseinolytic activity” value in [1] (0.5, 1.5, and 3.0 μM, 50 ng MT1-MMP, β-casein 52 μM) is “progressive inhibition of caseinolytic activity by increasing”. Also, the “inhibition of the formation of the smaller molecular weight species of gelatinase A” value in data set [4] (3.0 μM) is given as “essentially completely inhibits”. Moreover, the “inhibition of the conversion of pro-gelatinase A to active gelatinase A” value in data set [4] (0.5, 1.0, 1.5 and 3.0 μM, 50 ng recombinant MT1-MMP) was “progressive inhibition”. Further, in [5] (0.5 μM to 3.5 μM), the “gelatin-degrading activity of incubated medium” value is “inhibited” and the “percent of activated MMP-2 in the total expressed MMP-2” value is “decreased in a dose-dependent fashion”. The “active MMP-2” value in data set [5] (3.0 μM and 3.5 μM) is reported as “no active MMP-2 was detected”. Moreover, in data set [6], the “prevention of invasion in comparison to CMT-8” value is “slightly more effective” and the “concentration of maximal inhibition of invasion” value was 50 µM. In data set [7], the “inhibition of HT-1080 fibrosarcoma cell migration” value is reported as “clear inhibition; also recorded: Effective inhibition” and the “concentration of maximal inhibition of migration” value is 50 µM. Also, the “cytotoxicity to the cells” value in data set [8] was “not cytotoxic”. Moreover, in data set [9], the “blocking of cell surface integrins” value is given as “did not block”. Further, in [10], the “initial attachment and spreading of studied cell lines” value is recorded as “did not prevent”. Also, in data set [11], the serum half-life result was “approximately 28 hr”. Further, the “cytotoxicity in normal cells” value in data set [12] was “little or substantially no cytotoxicity”. The “tumor growth and metastasis” value in [13] is “suppress prostate and melanoma tumor growth and metastasis”.

`CN(C)C1C(=O)C(C#N)=C(O)C2(O)C(=O)C3=C(O)c4c(O)cccc4C(C)(O)C3CC12` (stereo not shown) [CMT-2, tetracyclinonitrile]: the “solubility in aqueous systems” value in data set [14] is “low solubility”. The blood levels entry in [15] is recorded as “no detectable blood levels”.

In the case of `C[C@H]1c2cccc(O)c2C(O)=C2C(=O)[C@]3(O)C(O)=C(C(N)=O)C(=O)C[C@@H]3[C@@H](O)[C@@H]21` [CMT-8, 6-deoxy-5α-hydroxy-4-de(dimethylamino)tetracycline], the “concentration of maximal inhibition of invasion” value in data set [6] came to 50 µM. Besides, in data set [7], the “inhibition of HT-1080 fibrosarcoma cell migration” value was “clear inhibition; also recorded: Effective inhibition” and the “concentration of maximal inhibition of migration” value turned out to be 50 µM. Also, the “cytotoxicity to the cells” value in data set [8] is recorded as “not cytotoxic”. Moreover, the “blocking of cell surface integrins” value in [9] was “did not block”. Moreover, the “initial attachment and spreading of studied cell lines” value in data set [10] was “did not prevent”.

Regarding `O=S(=O)(F)Cc1ccccc1` [PMSF, reference compound], the “inhibition of caseinolytic activity” value in data set [1] (0.5 mM) is reported as “did not inhibit”.
